Here are results for one compound from patent US20080107623A1, “Inhibitors of Hepatitis C Virus” (Bristol-Myers Squibb Company, priority 2006, published 2008).

Assay [1] concerns HCV replicon (Renilla luciferase reporter) in HUH-7 cells. As to the kind of experiment: HCV replicon luciferase reporter assay. It counts as cell-based, HCV strain 1b. The following applies: Huh-7, 96 h, 4 days. The source says: As a secondary assay, EC50 determinations from the replicon FRET assay were confirmed in a replicon luciferase reporter assay. Utilization of a replicon luciferase reporter assay was first described by Krieger et al (Krieger N, Lohmann V, and Bartenschlager R, J. Virol. 75(10):4614-4624 (2001)). The replicon construct described for our FRET assay was modified by inserting cDNA encoding a humanized form of the Renilla luciferase gene and a linker sequence fused directly to the 3′-end of the luciferase gene. This insert was introduced into the replicon construct using an AscI restriction site located in core, directly upstream of the neomycin marker gene. The adaptive mutation at position 1179 (serine to isoleucine) was also introduced (Blight K J, Kolykhalov, A A, Rice, C M, Science 290(5498):1972-1974). […] Following 4 days in a 37° C./5% CO2 incubator, cells were analyzed for Renilla Luciferase activity using the Promega Dual-Glo Luciferase Assay System. […] Plates were read on a Packard TopCount NXT using a luminescence program.
The percentage inhibition was calculated using the formula below: % control=average luciferase signal in experimental wells (+compound) average luciferase signal in DMSO control wells (− compound)
The values were graphed and analyzed using XLfit to obtain the EC50 value.

Assay [2] concerns the target T1, HCV NS3/4A protease complex, BMS strain (UniProt P27958, species not given/STRAIN_BMS).
T1 construct: said of H77 and J4L6S, not expressly of BMS; These are given for the H77 and J4L6S constructs only
The assay can be described thus: FRET peptide assay to monitor HCV NS3/4A proteolytic activity (BMS strain). The settings on record: NS3/4A BMS strain; read-out: IC50 Activity Range. It counts as biochemical, HCV genotype 1a. The source says:
HCV NS3 protease complexes, derived from the BMS strain, H77 strain or J4L6S strain, were generated, as described below. These purified recombinant proteins were generated for use in a homogeneous assay (see below) to provide an indication of how effective compounds of the present disclosure would be in inhibiting HCV NS3 proteolytic activity.
Serum from an HCV-infected patient was obtained from Dr. T. Wright, San Francisco Hospital. An engineered full-length cDNA (compliment deoxyribonucleic acid) template of the HCV genome (BMS strain) was constructed from DNA fragments obtained by reverse transcription-PCR (RT-PCR) of serum RNA (ribonucleic acid) and using primers selected on the basis of homology between other genotype 1a strains. From the determination of the entire genome sequence, a genotype 1a was assigned to the HCV isolate according to the classification of Simmonds et al. (See P Simmonds, K A Rose, S Graham, S W Chan, F McOmish, B C Dow, E A Follett, P L Yap and H Marsden, J. Clin. Microbiol., 31(6), 1493-1503 (1993)). […] The infectious clones, H77 (1a genotype) and J4L6S (1b genotype) were obtained from R. Purcell (NIH) and the sequences are published in Genbank (AAB67036, see Yanagi, M., Purcell, R. H., Emerson, S. U. and Bukh, J. Proc. Natl. Acad. Sci. U.S.A. 94(16),8738-8743 (1997); AF054247, see Yanagi, M., St Claire, M., Shapiro, M., Emerson, S. U., Purcell, R. H. and Bukh, J, Virology 244 (1), 161-172. (1998)).
NS3/4A protease complex-containing fractions were pooled and loaded on a desalting column Superdex-S200 pre-equilibrated with buffer D (25 mM HEPES, pH 7.5, 20% glycerol, 300 mM NaCl, 0.2% Triton X-100, 10 mM βME). Sample was loaded at a flow rate of 1 mL/min. NS3/4A protease complex-containing fractions were pooled and concentrated to approximately 0.5 mg/ml. The purity of the NS3/4A protease complexes, derived from the BMS, H77 and J4L6S strains, were judged to be greater than 90% by SDS-PAGE and mass spectrometry analyses. The enzyme was stored at −80° C., thawed on ice and diluted prior to use in assay buffer.
The purpose of this in vitro assay was to measure the inhibition of HCV NS3 protease complexes, derived from the BMS strain, H77 strain or J4L6S strain, as described above, by compounds of the present disclosure. This assay provides an indication of how effective compounds of the present disclosure would be in inhibiting HCV NS3 proteolytic activity.
In order to monitor HCV NS3/4A protease activity, an NS3/4A peptide substrate was used. The substrate was RET SI (Resonance Energy Transfer Depsipeptide Substrate; AnaSpec, Inc. cat #22991) (FRET peptide), described by Taliani et al. in Anal. Biochem. 240(2):60-67 (1996). […] The peptide also contains a fluorescence donor, EDANS, near one end of the peptide and an acceptor, DABCYL, near the other end. The fluorescence of the peptide is quenched by […] resonance energy transfer (RET) between the donor and the acceptor, but as the NS3 protease cleaves the peptide the products are released from RET quenching and the fluorescence of the donor becomes apparent.
The peptide substrate was incubated with one of the three recombinant NS3/4A protease complexes, in the absence or presence of a compound of the present disclosure. The inhibitory effects of a compound was determined by monitoring the formation of fluorescent reaction product in real time using a Cytofluor Series 4000. […]

T1 sequence (P27958 1027-1657, change not shown, one chain of several): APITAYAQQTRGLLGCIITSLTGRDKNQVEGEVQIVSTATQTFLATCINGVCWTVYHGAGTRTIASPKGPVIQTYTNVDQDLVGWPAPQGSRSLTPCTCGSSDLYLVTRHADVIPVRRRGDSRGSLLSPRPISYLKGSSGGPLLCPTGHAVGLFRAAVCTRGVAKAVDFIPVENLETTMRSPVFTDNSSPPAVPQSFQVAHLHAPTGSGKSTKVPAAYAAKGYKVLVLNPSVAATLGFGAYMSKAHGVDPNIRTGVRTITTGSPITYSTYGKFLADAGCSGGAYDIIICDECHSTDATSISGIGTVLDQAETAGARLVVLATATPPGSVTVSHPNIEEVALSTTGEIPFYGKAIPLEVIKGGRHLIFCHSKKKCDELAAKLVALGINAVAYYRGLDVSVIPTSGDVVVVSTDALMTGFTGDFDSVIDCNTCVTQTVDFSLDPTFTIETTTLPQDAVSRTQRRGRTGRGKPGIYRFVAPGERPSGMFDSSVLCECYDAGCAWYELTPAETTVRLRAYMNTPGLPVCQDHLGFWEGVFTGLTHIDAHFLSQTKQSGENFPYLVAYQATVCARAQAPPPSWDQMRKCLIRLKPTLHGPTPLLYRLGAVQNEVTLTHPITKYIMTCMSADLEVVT

`COc1c(O[C@@H]2C[C@H]3C(=O)N[C@]4(C(=O)NS(=O)(=O)C5CC5)C[C@H]4/C=C\CCCCC[C@H](NC(=O)OC(C)(C)C)C(=O)N3C2)ccc2c(Cl)nccc12` [Compound 3]: in assay [1], the concentration giving a half-maximal response (EC50) (in general, the midpoint of the concentration-response curve) came out at 5.5 nM. Further, in assay [2], the 50% inhibitory concentration (IC50) (commonly the concentration at which inhibition is half-maximal) was less than 100 nM.
